{"source": "paper PMC2362650", "about": "“Phase I and pharmacokinetic study of the topoisomerase II catalytic inhibitor fostriecin” (British Journal of Cancer, 1999)", "assay": "Plasma and urine pharmacokinetics (HPLC-UV) in patients after 60-min IV infusion", "format": "in vivo, human", "conditions": "for half-life / Cmax / AUC / MRT: human, plasma, intravenous; for Cmax: observed value", "text": "Fostriecin (CI-920) is a topoisomerase (topo) II catalytic activity inhibitor (Boritzki et al, 1988) (Figure 1). This novel class of topo II-targeting drugs is considered of potential value for treatment of patients with tumours resistant to classic topo II poisons, including anthracyclines and podophyllotoxins (Cummings and Smyth, 1993). The nuclear enzyme topo II is essential for the regulation of DNA conformation (reviewed in Osheroff et al, 1991). Central in its action is the formation of a complex with DNA. Stabilization of this complex by topo II poisons induces DNA damage and cell death (Froelich-Ammon and Osheroff, 1995). Decreased complex formation due to decreased topo II levels is considered to be an important mechanism of tumour-resistance to topo II poisons (Beck and Danks, 1991). The topo II catalytic inhibitor fostriecin is expected to have increased activity against tumour cells with low topo II levels and this was confirmed in in vitro studies (De Jong et al, 1991). […] Because of increased toxi- city of fostriecin in dogs compared to mice, a dose below one-third of the one-tenth mouse equivalent LD10, 2 mg m-2 day-1, was chosen as starting dose in humans (Clinical Brochure Fostriecin, 1991). […] We also performed an analysis of the human pharmacokinetics of fostriecin and ex vivo experiments to investigate if the plasma drug concentrations achieved were sufficient to inhibit a tenipo- side-resistant tumour cell line. The maximum tolerated dose (MTD) of fostriecin could not be established because drug supply was stopped prematurely. However, results of this study may provide a basis for continued clinical development of this agent. PATIENTS AND METHODS Patient selection, drug administration and evaluation Patient eligibility criteria were: histologically confirmed diagnosis of a solid tumour, no longer amenable to established forms of treatment; age 18-75 years; Eastern Cooperative Oncology Group (ECOG) performance status 2; life expectancy 12 weeks; no Phase I and pharmacokinetic study of the topoisomerase II catalytic inhibitor fostriecin RS de Jong1, NH Mulder1, DRA Uges2, DTh Sleijfer1, FJP Hoppener4, HJM Groen3, PHB Willemse1, WTA van der Graaf1 and EGE de Vries1 Departments of 1Medical Oncology, 2Pharmacy and Toxicology, and 3Pulmonary Diseases, University Hospital Groningen, The Netherlands; 4EORTC New Drug Development Office, Amsterdam, The Netherlands Summary We conducted a phase I and pharmacokinetic study of the topoisomerase II catalytic inhibitor fostriecin. Fostriecin was administered intravenously over 60 min on days 1-5 at 4-week intervals. Dose was escalated from 2 mg m-2 day-1 to 20 mg m-2 day-1 in 20 patients. Drug pharmacokinetics was analysed with high performance liquid chromatography with UV-detection. Plasma collected during drug administration was tested in vitro for growth inhibition of a teniposide-resistant small-cell lung cancer (SCLC) cell line. The predominant toxicities were elevated liver transaminases (maximum common toxicity criteria (CTC) grade 4) and serum creatinine (maximum CTC grade 2). […] Duration of elevated alanine-amino transferase (ALT) was dose-limiting in one patient at 20 mg m-2. Other frequent toxicities were grade 1-2 nausea/vomiting, fever and mild fatigue. […] A metabolite, most probably dephosphorylated fostriecin, was detected in plasma and urine. […] However, further escalation seems possible and is warranted to achieve potentially effective drug levels. Fostriecin has a short plasma half-life and longer duration of infusion should be considered. […]", "key": {"[1]": {"conditions": "patient no. 1, 2 mg m-2, day 1 course 1, one-compartment model"}, "[2]": {"conditions": "patient no. 3, 2 mg m-2, day 1 course 1, one-compartment model"}, "[3]": {"conditions": "patient no. 4, 2 mg m-2, day 1 course 1, one-compartment model"}, "[4]": {"conditions": "patient no. 5, 4 mg m-2, day 1 course 1, one-compartment model"}, "[5]": {"conditions": "patient no. 6, 4 mg m-2, day 1 course 1, one-compartment model"}, "[6]": {"conditions": "patient no. 7, 4 mg m-2, day 1 course 1, two-compartment model"}, "[7]": {"conditions": "patient no. 11, 6.6 mg m-2, day 1 course 1, two-compartment model"}, "[8]": {"conditions": "patient no. 12, 6.6 mg m-2, day 1 course 1, two-compartment model"}, "[9]": {"conditions": "patient no. 13, 10 mg m-2, day 1 course 1, two-compartment model"}, "[10]": {"conditions": "patient no. 15, 10 mg m-2, day 1 course 1, two-compartment model"}, "[11]": {"conditions": "patient no. 16, 12.2 mg m-2, day 1 course 1, two-compartment model"}, "[12]": {"conditions": "patient no. 18, 12.2 mg m-2, day 1 course 1, two-compartment model"}, "[13]": {"conditions": "patient no. 19, 20 mg m-2, sampling on day 1 of course 2, two-compartment model"}, "[14]": {"conditions": "patient no. 20, 20 mg m-2, day 1 course 1, two-compartment model"}}, "note": "“And” between values parts separate entries of the source, which are not always exact repeats. Equal entries are not always repeated. Where two headings read alike, the source gives them in different places.", "data": [{"smiles": "C[C@@](O)(/C=C/[C@H]1CC=CC(=O)O1)[C@@H](C[C@@H](O)\\C=C/C=C\\C=C\\CO)OP(=O)(O)O", "note": "[fostriecin]", "values": [{"measurement": "half-life", "setting": "12.2 mg, patient no. 16, 12.2 mg m-2, day 1 course 1, two-compartment model, read-out: t1/2 (terminal) (converted)", "value": 70.2, "unit": "min"}, {"measurement": "Cmax", "setting": "12.2 mg, patient no. 18, 12.2 mg m-2, day 1 course 1", "value": 2790, "unit": "ng/mL"}, {"measurement": "AUC", "setting": "12.2 mg, patient no. 18, 12.2 mg m-2, day 1 course 1, two-compartment model", "value": 5320, "unit": "ng·h/mL"}, {"measurement": "MRT", "setting": "12.2 mg, patient no. 18, 12.2 mg m-2, day 1 course 1, two-compartment model, read-out: MRT", "value": 217, "unit": "min"}, {"measurement": "half-life", "setting": "12.2 mg, patient no. 18, 12.2 mg m-2, day 1 course 1, two-compartment model, read-out: t1/2 (initial) (converted)", "value": 27.6, "unit": "min"}, {"measurement": "half-life", "setting": "12.2 mg, patient no. 18, 12.2 mg m-2, day 1 course 1, two-compartment model, read-out: t1/2 (terminal) (converted)", "value": 306, "unit": "min"}, {"measurement": "Cmax", "setting": "20 mg, patient no. 19, 20 mg m-2, sampling on day 1 of course 2", "value": 3850, "unit": "ng/mL"}, {"measurement": "AUC", "setting": "20 mg, patient no. 19, 20 mg m-2, sampling on day 1 of course 2, two-compartment model", "value": 4450, "unit": "ng·h/mL"}, {"measurement": "MRT", "setting": "20 mg, patient no. 19, 20 mg m-2, sampling on day 1 of course 2, two-compartment model, read-out: MRT", "value": 22.8, "unit": "min"}, {"measurement": "half-life", "setting": "20 mg, patient no. 19, 20 mg m-2, sampling on day 1 of course 2, two-compartment model, read-out: t1/2 (initial) (converted)", "value": 1.8, "unit": "min"}, {"measurement": "half-life", "setting": "20 mg, patient no. 19, 20 mg m-2, sampling on day 1 of course 2, two-compartment model, read-out: t1/2 (terminal) (converted)", "value": 32.4, "unit": "min"}, {"measurement": "Cmax", "setting": "20 mg, patient no. 20, 20 mg m-2, day 1 course 1", "value": 6350, "unit": "ng/mL"}, {"measurement": "AUC", "setting": "20 mg, patient no. 20, 20 mg m-2, day 1 course 1, two-compartment model", "value": 9960, "unit": "ng·h/mL"}, {"measurement": "MRT", "setting": "20 mg, patient no. 20, 20 mg m-2, day 1 course 1, two-compartment model, read-out: MRT", "value": 49.8, "unit": "min"}, {"measurement": "half-life", "setting": "20 mg, patient no. 20, 20 mg m-2, day 1 course 1, two-compartment model, read-out: t1/2 (initial) (converted)", "value": 0.6, "unit": "min"}, {"measurement": "half-life", "setting": "20 mg, patient no. 20, 20 mg m-2, day 1 course 1, two-compartment model, read-out: t1/2 (terminal) (converted)", "value": 45.6, "unit": "min"}, {"measurement": "half-life", "setting": "two-compartment model, 95% CI 0-0.76 h, read-out: mean plasma half-life (initial) (converted)", "value": 21.6, "unit": "min"}, {"measurement": "MRT", "setting": "two-compartment model, 95% CI 0.41-1.97 h, read-out: mean residence time (MRT)", "value": 71.4, "unit": "min"}, {"measurement": "half-life", "setting": "two-compartment model, 95% CI 0.41-2.61 h, read-out: mean plasma half-life (terminal) (converted)", "value": 90.6, "unit": "min"}, {"measurement": "renal excretion as share of drug elimination", "setting": "mean, patient nos 12-20, 95% CI 10-17.6%", "value": "14.6% and 15%"}, {"measurement": "Cl", "setting": "[1]", "value": 5.14, "unit": "l h-1 m-2"}, {"measurement": "Vd", "setting": "[1]", "value": 4.44, "unit": "l m-2"}, {"measurement": "Cl", "setting": "[2]", "value": 2.40, "unit": "l h-1 m-2"}, {"measurement": "Vd", "setting": "[2]", "value": 1.86, "unit": "l m-2"}, {"measurement": "Cl", "setting": "[3]", "value": 4.11, "unit": "l h-1 m-2"}, {"measurement": "Vd", "setting": "[3]", "value": 2.10, "unit": "l m-2"}, {"measurement": "Cl", "setting": "[4]", "value": 2.81, "unit": "l h-1 m-2"}, {"measurement": "Vd", "setting": "[4]", "value": 2.03, "unit": "l m-2"}, {"measurement": "Cl", "setting": "[5]", "value": 3.05, "unit": "l h-1 m-2"}, {"measurement": "Vd", "setting": "[5]", "value": 2.03, "unit": "l m-2"}, {"measurement": "Cl", "setting": "[6]", "value": 2.31, "unit": "l h-1 m-2"}, {"measurement": "Vd", "setting": "[6]", "value": 6.76, "unit": "l m-2"}, {"measurement": "Cl", "setting": "[7]", "value": 4.06, "unit": "l h-1 m-2"}, {"measurement": "Vd", "setting": "[7]", "value": 2.75, "unit": "l m-2"}, {"measurement": "Cl", "setting": "[8]", "value": 2.63, "unit": "l h-1 m-2"}, {"measurement": "Vd", "setting": "[8]", "value": 4.64, "unit": "l m-2"}, {"measurement": "Cl", "setting": "[9]", "value": 2.97, "unit": "l h-1 m-2"}, {"measurement": "Vd", "setting": "[9]", "value": 3.98, "unit": "l m-2"}, {"measurement": "Cl", "setting": "[10]", "value": 2.66, "unit": "l h-1 m-2"}, {"measurement": "Vd", "setting": "[10]", "value": 5.34, "unit": "l m-2"}, {"measurement": "Cl", "setting": "[11]", "value": 2.84, "unit": "l h-1 m-2"}, {"measurement": "Vd", "setting": "[11]", "value": 4.80, "unit": "l m-2"}, {"measurement": "Cl", "setting": "[12]", "value": 2.32, "unit": "l h-1 m-2"}, {"measurement": "Vd", "setting": "[12]", "value": 17.09, "unit": "l m-2"}, {"measurement": "Cl", "setting": "[13]", "value": 4.52, "unit": "l h-1 m-2"}, {"measurement": "Vd", "setting": "[13]", "value": 3.39, "unit": "l m-2"}, {"measurement": "Cl", "setting": "[14]", "value": 1.83, "unit": "l h-1 m-2"}, {"measurement": "Vd", "setting": "[14]", "value": 2.01, "unit": "l m-2"}, {"measurement": "mean volume of distribution (Vd)", "setting": "two-compartment model, 95% CI 2.16-9.11", "value": 5.64, "unit": "l m-2"}, {"measurement": "mean Cl (apparent total body clearance)", "setting": "two-compartment model, 95% CI 2.24-3.57", "value": 2.90, "unit": "l h-1 m-2"}, {"measurement": "mean Cl (apparent total body clearance)", "setting": "unit conversion of 2.90 l h-1 m-2", "value": 48.3, "unit": "ml min-1 m-2"}]}]}
